Measurements reported in patent US20250270321A1, “METHODS OF TREATING LUNG CANCER BY ADMINISTERING A PD-1 INHIBITOR” (priority 2021, published 2025).
Values joined by “and” are separate entries in the source; they are usually repeats but may differ in a detail not shown here. Identical values can stand only once. “Also recorded” adds a separate entry of the source. Marks after values point to notes of the source that are not given here.

Assays:
[1] = tested on: advanced NSCLC with PD-L1 ≥50% and brain metastases; experiment: EMPOWER-Lung 1 phase 3 subgroup analysis: clinical outcomes in patients with treated stable brain metastases; type: in vivo, human
Excerpt: Primary Endpoints: The primary endpoints are OS and PFS (per RECIST 1.1, Eisenhauer 2009). Overall survival is defined as the time from randomization to the date of death. A patient who has not died is censored at the last known date of contact. Progression-free survival is defined as the time from randomization to the date of the first documented tumor progression or death due to any cause. Patients are censored according to the following rules: […] Secondary Endpoints: A key secondary endpoint in the study is ORR. Objective response rate is defined as the number of patients with a best overall response (BOR) of confirmed CR or PR divided by the number of patients in the efficacy analysis set. Best overall response is defined as the best overall response (per RECIST 1.1) between the date of randomization and the date of the first objectively documented progression or the date of subsequent anti-cancer therapy, whichever comes first. Other secondary endpoints include DOR and QOL. Duration of response is defined as the time between the date of first response (CR or PR) to the date of the first documented tumor progression (per RECIST 1.1) or death due to any cause. Quality of life is measured by EORTC QLQ-C30 and […]. Further secondary endpoints also include the safety and tolerability of cemiplimab. To evaluate the safety and tolerability of cemiplimab versus platinum-based chemotherapies, safety and tolerability are measured by the incidence of AEs, serious adverse events (SAEs), deaths, and laboratory abnormalities to assess immunogenicity (ADA/Nabs) to cemiplimab and any relationship with drug concentrations, efficacy and safety. Methods: The design of this study is illustrated in FIG. 1. […] Tumor response to therapy was assessed according to RECIST 1.1, measured by CT or MRI. […] All patients received local therapy and needed to be neurologically stable before joining the trial. In patients with a known history of treated brain metastases at baseline, CT or MRI of the brain with contrast (unless contraindicated) was performed at screening (except if performed within 60 days prior to screening). Additional sites of known disease (including CNS) were also imaged at screening. During the treatment and follow-up period, surveillance imaging of the brain was performed every 18 weeks for year 1, and every 24 weeks for year 2, or sooner if clinically indicated.

[2] = tested on: advanced NSCLC with PD-L1 ≥50% and clinically stable treated brain metastases; experiment: EMPOWER-Lung 1 post-hoc patient reported outcomes (EORTC QLQ-C30/QLQ-LC13) in brain metastases subgroup; type: in vivo, human
Protocol: Patient Reported Outcomes (PROs): Post-hoc exploratory analyses were conducted to evaluate PROs in this subgroup of aNSCLC patients with PD-L1 ≥50% and clinically stable treated brain metastases at baseline. PROs were assessed at baseline and day 1 of each treatment cycle for the first 6 cycles, and then on day 1 of every third cycle using EORTC QLQ-C30 and QLQ-LC13 questionnaires. Higher scores indicate better functioning, global health status (GHS)/quality of life (QoL), or worse symptom severity. Mixed model for repeated measures analyses were performed to compare overall change from baseline scores between the two treatment arms, while controlling for baseline characteristics. The baseline PRO scores of the cemiplimab arm were broadly similar with the chemotherapy arm.

[3] = tested on: advanced NSCLC with PD-L1 ≥50%; experiment: EMPOWER-Lung 1 patient-reported symptoms, functioning and QoL (EORTC QLQ-C30/QLQ-LC13), ITT population; type: in vivo, human; settings: for Definitive deterioration on key symptoms (dyspnea, cough, pain in chest, pain in other body parts, fatigue, nausea/vomiting, appetite loss, constipation, diarrhea): all P<0.05
Excerpt: Methods: EMPOWER-Lung 1 was a multicenter, open-label, randomized, controlled, Phase III, pivotal clinical trial of cemiplimab in adults (≥18 years) with: […] (ii) ECOG performance status ≤1; (iii) adequate organ and bone marrow function; and (iv) adequately treated clinically stable brain metastases (historically underrepresented in clinical trials) were allowed to enroll. […] In the intent-to-treat population, mixed-effects repeated measures models (mixed-model repeat measures, MMRM) were used to estimate least squares (LS) mean change from BL on all scales. Follow-up assessment was conducted 14 to 30 days after the last study treatment administration if a patient discontinued, or 14 to 30 days (±7 days) after the last cycle visit if the patient completed treatment. […] Scores range from 0 to 100; high scores on functional domains and low scores on symptoms reflect better outcomes. The QLQ-LC13 is a patient-reported outcome measure that assesses lung cancer disease- and treatment-specific symptoms during the past week. Scores range from 0 to 100; higher scores reflect higher symptom levels. […] MMRM analysis was used to estimate LS mean change from baseline on all scales among patients with a baseline and at least one post-baseline score. […] Hazard ratios (HRs) with 95% confidence intervals (95% CIs) were derived from the survival analyses to determine the likelihood of definitive deterioration. Analyses were based on the intention-to-treat (ITT) population consisting of all randomized patients.

[4] = tested on: locally advanced NSCLC (laNSCLC) with PD-L1 ≥50%; experiment: EMPOWER-Lung 1 subgroup analysis: patients with locally advanced NSCLC; type: in vivo, human
Excerpt: Methods: […] Patients with locally advanced non-small cell lung cancer ([…]) were those with Stage IIIB/IIIC disease who were not candidates for definitive concurrent chemoradiotherapy. Study Design: Key eligibility criteria included: (i) treatment-naïve advanced NSCLC; […] (iii) no EGFR, ALK, or ROS1 mutations; […] Stratification factors included: histology (squamous vs non-squamous) and region (Europe, Asia, or ROW). Primary endpoints: OS and PFS. Secondary endpoints: ORR (key), DOR, HRQoL, and safety. The patients had locally advanced NSCLC, including those with Stage IIIB/IIIC disease who were not candidates for treatment with definitive concurrent chemoradiotherapy or had recurred after initial treatment with concurrent chemoradiotherapy.

[5] = tested on: advanced NSCLC (aNSCLC) with PD-L1 ≥50%; experiment: EMPOWER-Lung 1 phase 3 study, cemiplimab monotherapy vs platinum-doublet chemotherapy, OS and PFS; type: in vivo, human; settings: cemiplimab monotherapy versus platinum-doublet chemotherapy
Excerpt: Additional objectives include further characterization of tumor responses, patient-reported outcomes, safety, and pharmacokinetics (PK). Objectives: […] Progression-free survival, the time to tumor progression (based on Response Evaluation Criteria in Solid Tumors version 1.1 [RECIST 1.1] criteria [Eisenhauer) 2009]) or death, was chosen as a primary endpoint because PFS is recognized as a marker of clinical benefit. […] Disease progression will be determined based on the RECIST 1.1 criteria (Eisenhauer 2009). […] A secondary objective of the study includes comparing the ORR of cemiplimab versus platinum-based chemotherapies. Primary Endpoints: The primary endpoints are OS and PFS (per RECIST 1.1, Eisenhauer 2009). Overall survival is defined as the time from randomization to the date of death. A patient who has not died is censored at the last known date of contact. Progression-free survival is defined as the time from randomization to the date of the first documented tumor progression or death due to any cause. Patients are censored according to the following rules: […] Study Design: […] […] Safety is assessed through the occurrence of TEAEs, vital sign evaluation, physical examination, and laboratory analyses. […] […]

[6] = tested on: advanced NSCLC; settings: in vivo
[7] = after baseline, brain metastases subgroup, n=34 per arm
[8] = brain metastases subgroup, n=34 per arm
[9] = brain metastases subgroup, cemiplimab vs chemotherapy
[10] = Cemiplimab minus chemo, QLQ-C30, ITT
[11] = cemiplimab vs chemotherapy, ITT
[12] = cemiplimab n=45, chemotherapy n=42
[13] = cemiplimab n=45, chemotherapy n=42, listed as cemiplimab

cemiplimab
CNS intracranial disease progression, % of patients [1, 7]: 5.9%
CNS intracranial disease progression, patients [1, 7]: two
Best overall tumor response: Complete response, % [1, 8]: (8.8) %
Best overall tumor response: Non-evaluable, % [1, 8]: (11.8) %
Best overall tumor response: Partial response, % [1, 8]: (32.4) %
Best overall tumor response: Progressive disease, % [1, 8]: (20.6) %
Best overall tumor response: Stable disease, % [1, 8]: (26.5) %
Extra-CNS disease progression, % of patients [1, 8]: 26.5%
Extra-CNS disease progression, patients [1, 8]: 9 patients
Intracranial disease progression due to a new tumor, % of patients [1, 8]: 2.9%
Intracranial disease progression due to a new tumor, patients [1, 8]: one
Intracranial disease progression due to an existing tumor, % of patients [1, 8]: 5.9%
Intracranial disease progression due to an existing tumor, patients [1, 8]: two
ORR [1, 8]: 41.2%
OS, median ([1]; brain metastases subgroup, n=34 per arm, cemiplimab 350 mg IV Q3W or investigator's choice chemotherapy): 18.7 months
ORR ([1]; brain metastases subgroup, n=34 per arm, listed as cemiplimab): 41.2%
PFS, median ([1]; brain metastases subgroup, n=34 per arm, per independent review committee): 10.4 months
ORR odds ratio (95% CI) [1, 9]: 6.9 (1.7-27.8); P = 0.0034*
OS HR (95% CI) [1, 9]: 0.17 (0.04-0.76); P = 0.0091
PFS HR (95% CI) [1, 9]: 0.45 (0.22-0.92); P = 0.0231
Median KM estimation of brain metastasis PFS ([1]; cemiplimab versus chemotherapy, FIG. 4): superior
Difference in overall change from baseline in appetite loss ([2]; cemiplimab versus chemotherapy): −7.43
Difference in overall change from baseline in emotional functioning ([2]; cemiplimab versus chemotherapy): 7.27
Difference in overall change from baseline in role functioning ([2]; cemiplimab versus chemotherapy): 8.59
Difference in overall change from baseline in symptoms of fatigue ([2]; cemiplimab versus chemotherapy): −8.19
Overall change from baseline in GHS/QOL, difference cemiplimab versus chemotherapy ([2]; mixed model for repeated measures): 9.35
Difference in LS mean change from BL (95% CI): Cognitive functioning [3, 10]: 2.5 (0.4-4.5)*
Difference in LS mean change from BL (95% CI): Emotional functioning [3, 10]: 3.4 (1.0-5.9)*
Difference in LS mean change from BL (95% CI): GHS/QoL [3, 10]: 5.4 (2.7-8.1)*
Difference in LS mean change from BL (95% CI): Physical functioning [3, 10]: 4.2 (1.6-6.7)*
Difference in LS mean change from BL (95% CI): Role functioning [3, 10]: 3.3 (0.2-6.3)*
Difference in LS mean change from BL (95% CI): Social functioning [3, 10]: 5.2 (2.5-7.9)*
LS mean change (SE) from baseline in GHS/QOL across all timepoints ([3]; MMRM analysis, EORTC QLQ-C30, C2 to C15): 7.1 (1.0)
Definitive deterioration on key symptoms (dyspnea, cough, pain in chest, pain in other body parts, fatigue, nausea/vomiting, appetite loss, constipation, diarrhea) ([3]; cemiplimab versus chemotherapy): lower likelihood of definitive deterioration
Definitive deterioration on key symptoms (dyspnea, cough, pain in chest, pain in other body parts, fatigue, nausea/vomiting, appetite loss, constipation, diarrhea) ([3]; cemiplimab versus chemotherapy, listed as cemiplimab): significantly lower risk of definitive deterioration
Definitive deterioration of treatment-related symptoms of peripheral neuropathy and alopecia ([3]; cemiplimab versus chemotherapy, both P<0.05): lower likelihood of definitive deterioration; also recorded: lower risk of definitive deterioration
HR (95% CI) for definitive deterioration: Cognitive functioning [3, 11]: 0.64 (0.44-0.93)*
HR (95% CI) for definitive deterioration: Emotional functioning [3, 11]: 0.49 (0.30-0.79)*
HR (95% CI) for definitive deterioration: GHS/QoL [3, 11]: 0.73 (0.52-1.03)
HR (95% CI) for definitive deterioration: Physical functioning [3, 11]: 0.59 (0.42-0.84)*
HR (95% CI) for definitive deterioration: Role functioning [3, 11]: 0.65 (0.46-0.92)*
HR (95% CI) for definitive deterioration: Social functioning [3, 11]: 0.50 (0.35-0.72)*
12-month OS ([4]; FIG. 9): 78.5%
12-month PFS ([4]; FIG. 10): 38.5%
Best overall response: CR, % [4, 12]: (2.2) %
Best overall response: Non-evaluable, % [4, 12]: (17.8) %
Best overall response: PD, % [4, 12]: (15.6) %
Best overall response: Partial response, % [4, 12]: (42.2) %
Best overall response: Stable disease, % [4, 12]: (22.2) %
ORR, % [4, 12]: (44.4) %
PFS, median [4, 12]: 8.4 months
ORR, % [4, 13]: 44% and 44.4%
OS, median [4, 13]: not yet reached
ORR odds ratio (95% CI) ([4]; cemiplimab vs chemotherapy): 1.8 (0.7-4.2); *P = 0.20
OS HR (95% CI) ([4]; cemiplimab vs chemotherapy): 0.5 (0.2-1.1); P = 0.0875
PFS HR (95% CI) ([4]; cemiplimab vs chemotherapy): 0.5 (0.3-0.9); P = 0.0153
Reduction in the risk of disease progression ([4]; cemiplimab vs chemotherapy): 51%
PFS HR (95% CI) ([4]; cemiplimab vs chemotherapy, listed as cemiplimab): 0.49
KM estimated DOR, median ([4]; responders: cemiplimab n=20, chemotherapy n=13): 12.5 months
Overall survival hazard ratio [5]: 0.57
Progression-free survival hazard ratio [5]: 0.54
Patients with ≥1 PRBC transfusions, % [6]: 1.1%
Patients with ≥1 platelet transfusions, % [6]: 0.3%
SAE-associated hospitalization rate [6]: 33.2 per 100 patient-years
